# Data as given in patent US20200113920A1, “COMPOSITIONS AND METHODS FOR TREATMENT OF MICROSPORIDIA INFECTION USING PROTEASOME INHIBITORS INCLUDING IXAZOMIB” (BARNARD COLLEGE, priority 2018, published 2020).
# Counter-ions that a name gives are not always drawn. Non-standard residues stand in square brackets, D forms with d. Residues, ends and D or L forms follow the SMILES beside them. ξ: configuration not given here. *: point of attachment. Cbz = O=C(OCc1ccccc1)*; ξL = CC(C)CC(N)C(=O)O
# Legend:
# [1] = system: N. ceranae; test: N. ceranae infection intensity in experimentally infected honey bees fed drug in sucrose syrup; format: in vivo, Nosema ceranae
# Procedure: that works by reacting with the β5 subunit responsible for chymotrypsin-like activity (Goldberg, 2012). After experimentally infecting bees, infected bees were fed sucrose syrup or sucrose syrup containing 500 μM MG132 for 2 days starting on day 6 post infection. On day 8 post infection, spore levels were then measured using light microscopy to determine the effects of proteasome inhibition on N. ceranae infection intensity. […] MG132 is a poorly bioavailable proteasome inhibitor with known toxicity in multicellular eukaryotes. […] Significant effort has been directed towards finding novel strategies for targeting the proteasome (Goldberg, 2012; Śledź and Baumeister, 2016; Cromm and Crews, 2017), providing a number of pharmacologic agents with better efficacy, improved bioavailability, and increased selectivity. We first tested the ability of ixazomib, a modified peptide boronic acid that binds the β5 site of the 20 S proteasome and inhibits proteasome activity (Kupperman et al. 2010), to reduce N. ceranae infection in honey bees. Ixazomib is commercially available (e.g., from Selleck Chemincals) and has the structure of […]
# [2] = system: N. ceranae; test: N. ceranae infection in newly eclosed, experimentally infected honey bees fed proteasome inhibitors (spore counting and quantitative PCR); format: in vivo, Nosema ceranae; settings: for infection intensity after cessation of treatment (rebound): four days treatment, then sucrose solution alone for 4 days, spore counting and DNA; for efficacy against N. ceranae infection relative to Fumagillin: feeding bees during N. ceranae infection
# Excerpt: To standardize experiments by using age-matched bees and to allow for longer treatment periods, we used newly enclosed bees and tested the effects of a number of commercially available proteasome inhibitors, including Ixazomib (MLN2238) (purchased from Selleck Chemicals), Ixazomib citrate (MLN9708) (purchased from Selleck Chemicals), Oprozomib (ONX 0912) (purchased from Selleck Chemicals), Dexazomib (purchased from Selleck Chemicals), Carfilzomib (purchased from Selleck Chemicals), Bortezomib (purchased from Selleck Chemicals), Epoxomicin (purchased from Selleck Chemicals), HMB-Val-Ser-Leu-VE (purchased from Cayman Chemical), MG-262 (purchased from APExBIO), and the two stereoisomers of MG132 (S and R) (purchased from Cayman Chemical) as well as Fumagillin (purchased from Selleck Chemicals). On day two post-eclosion, N. ceranae spores (5×10^6 ml) were fed to bees in sucrose solution ad libitum (Fries et al. 2013) for 48 hours. At 3 days post infection, honey bees in individual cages were fed sucrose solution containing one of the pharmacologic agents at 40 μM or vehicle control alone. For each trial, we tested pairs of novel compounds simultaneously with an untreated group, a Fumagillin treated group, and an Ixazomib-treated group. After 4 days of drug feeding, honey bee midguts were dissected, and infection levels were assessed by spore counting and quantitative PCR.
# We focused on ixazomib and ixazomib citrate for further experiments. Again using newly eclosed bees, we treated infected bees for up to eight days with ixazomib, Fumagillin, or sucrose solution alone, and measured infection level by spore counting and DNA on days 4 and 8 post initiation of treatment (FIGS. 4A and 4B). […] Finally, the goal was to determine whether any rebound of N. ceranae infection was observed after cessation of treatment by ixazomib and ixazomib citrate as has been reported for Fumagillin (Huang et al. 2013). Infected newly eclosed bees were treated with sucrose solution containing ixazomib, ixazomib citrate, Fumagillin, or vehicle alone for four days. We then switched all cages to sucrose solution alone for 4 days and then measured infection level by spore counting and DNA. We observed that infection intensity stayed the same for bees receiving sucrose solution for the whole experiment, increased for those bees treated with Fumagillin first, and decreased for those bees fed either ixazomib or ixazomib citrate first (FIGS. 4E and 4F).
# [3] = system: honey bees; test: Honey bee survival during drug feeding; format: in vivo, Apis mellifera; settings: 40 μM in sucrose solution for 10 days starting day 3 post-eclosion, newly emerged bees
# Procedure: To assess the impact of ixazomib treatment on age-matched honey bees, newly emerged bees were fed sucrose solution containing ixazomib, ixazomib citrate, Fumagillin (all at 40 μM), or vehicle alone for 10 days starting on day 3 post-eclosion.
# [4] = system: Encephalitozoon hellem; test: E. hellem infection of RK-13 cells, qPCR-based assay of pathogen and host cell genome equivalents; settings: four-day infection of RK-13 cells
# Excerpt: (§1) Thus, it was hypothesized that pharmacological inhibition of the UPS will reduce infection intensity of diverse microsporidia in their respective host species. To test this hypothesis, we chose to focus on Encephalitozoon hellem, a microsporidia species first described as the cause of keratoconjunctivitis in 3 AIDS patients in 1991 (Didier et al. 1991) and subsequently observed in numerous immunocompromised patients (Weiss and Becnel, 2014). The genome of E. hellem has been sequenced (Pombert et al. 2012) and it is easily culturable (Molestina et al. 2014), making it ideal for such studies.
# [5] = system: N. ceranae; test: N. ceranae infection in naturally infected bees from a highly infected colony; format: in vivo, Nosema ceranae; settings: bees from a highly infected colony (prevalence>90% infected); fed 2 days vs DMSO vehicle control
# [6] = system: rabbit kidney cell line (RK-13) cells; test: Rabbit cell numbers in E. hellem-infected RK-13 culture; format: cell-based; settings: 10-100 nM ixazomib; four-day infection of RK-13 cells
# Excerpt: as §1
smiles,measurement,setting,value
CO[C@@H]1[C@H](OC(=O)/C=C/C=C/C=C/C=C/C(=O)O)CC[C@]2(CO2)[C@H]1[C@@]1(C)O[C@@H]1CC=C(C)C [Fumagillin],"N. ceranae infection intensity, Fumagillin compared with MG132","[1]; two days of feeding Fumagillin, data not shown",similar
same,infection intensity after cessation of treatment (rebound),[2],increased
same,honey bee survival,[3],no differences in the survival between treatments
same,"E. hellem infection intensity, Fumagillin compared with ixazomib",[4]; 50 ng/ml Fumagillin,comparable
CCOC(=O)/C=C/[C@H](CC(C)C)NC(=O)[C@H](CO)NC(=O)[C@@H](NC(=O)c1cccc(O)c1C)C(C)C [HMB-Val-Ser-Leu-VE],infection level by relative genome equivalents,"[2]; 40 μM in sucrose solution, from 3 days post infection, 4 days of drug feeding, midguts, quantitative PCR",all tested proteasome inhibitors except HMB-Val-Ser-Leu-VE
CC(C)C[C@H](NC(=O)CNC(=O)c1cc(Cl)ccc1Cl)B1OC(=O)C(CC(=O)O)(CC(=O)O)O1 [Ixazomib citrate],honey bee survival,[3],no differences in the survival between treatments
CC(C)C[C@H](NC(=O)CNC(=O)c1cc(Cl)ccc1Cl)B(O)O [Ixazomib],N. ceranae infection by both spore-counting and DNA analysis,[5],striking reduction
same,N. ceranae infection intensity by spore counting and DNA analysis,[2]; 2.5 μM,"diminished, but still robust, reduction in infection intensity"
same,impact on N. ceranae infection levels (ranking among tested inhibitors),"[2]; 40 μM, 4 days of drug feeding, spore counting and quantitative PCR",most effective at reducing infection levels
same,efficacy against N. ceranae infection relative to Fumagillin,[2],better efficacy than Fumagillin
same,infection intensity after cessation of treatment (rebound),[2],decreased
same,"N. ceranae infection level, dose and time dependence","[2]; treated up to eight days, measured days 4 and 8, spore counting and DNA analysis (FIGS. 4A-4F)",stably reduces N. ceranae infection level in a dose and time dependent manner
same,honey bee survival,[3],no differences in the survival between treatments
same,E. hellem infection intensity,"[4]; 10-100 nM ixazomib, preliminary results",reduces E. hellem infection intensity
same,rabbit cell numbers,[6],without substantial reduction in rabbit cell numbers
CC(C)CC(NC(=O)[C@H](CC(C)C)NC(=O)OCc1ccccc1)C(=O)N[C@H](C=O)CC(C)C (stereo partly drawn) [MG132] (Cbz-Leu-[ξL]-Leu-aldehyde),N. ceranae infection intensity (spore levels by light microscopy),"[1]; experimentally infected bees, 500 μM MG132 in sucrose syrup for 2 days (48 hours) from day 6 post infection, measured day 8",dramatic reduction in infection intensity
same,efficacy against N. ceranae infection relative to Fumagillin,[2],not as efficacious as Fumagillin
